Test results reported in PubChem BioAssay AID328 (DTP/NCI, 2004).
Where “and” joins values, the source holds several entries; their conditions need not be identical. Equal entries are not always repeated. Toxic doses and inconclusive results are not listed. How the source made its calls: active means survival T/C of 150% or more; inactive means T/C below 125% in these data.

System: BDF1 mice, P388 leukemia ip, median survival T/C
Test: NCI In Vivo Anticancer Drug Screen. Data for tumor model P388 Leukemia (intraperitoneal) in B6D2F1 (BDF1) mice
Details: endpoint: median survival time, higher = longer survival
Summary of the method: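 Vehicle-dosed animals serve as the reference; survival of compound-dosed, tumour-implanted mice is divided by it.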

[1] = dose: 25.0 mg/kg/injection, schedule: Q04DX003 (ip), vehicle: saline
[2] = dose: 50.0 mg/kg/injection, schedule: Q04DX003 (ip), vehicle: saline
[3] = dose: 75.0 mg/kg/injection, schedule: Q04DX003 (ip), vehicle: saline
[4] = dose: 50.0 mg/kg/injection, schedule: Q01DX009 (ip), vehicle: saline with Tween-80
[5] = dose: 100.0 mg/kg/injection, schedule: Q01DX009 (ip), vehicle: saline with Tween-80
[6] = dose: 200.0 mg/kg/injection, schedule: Q01DX009 (ip), vehicle: saline with Tween-80
[7] = dose: 100.0 mg/kg/injection, schedule: Q04DX003 (ip), vehicle: Klucel (hydroxypropylcellulose) (HPC)
[8] = dose: 200.0 mg/kg/injection, schedule: Q04DX003 (ip), vehicle: Klucel (hydroxypropylcellulose) (HPC)
[9] = dose: 400.0 mg/kg/injection, schedule: Q04DX003 (ip), vehicle: Klucel (hydroxypropylcellulose) (HPC)
[10] = dose: 50.0 mg/kg/injection, schedule: Q04DX003 (ip), vehicle: saline with Tween-80
[11] = dose: 25.0 mg/kg/injection, schedule: Q04DX003 (ip), vehicle: saline with Tween-80

Measured: T/C

CN(C)CCC=C1c2ccccc2-c2ccccc21
inactive: dose: 12.5 mg/kg/injection, schedule: Q04DX003 (ip), vehicle: saline 100 % of control | dose: 25.0 mg/kg/injection, schedule: Q01DX009 (ip), vehicle: saline 115 % of control | [1] 90 % of control | dose: 50.0 mg/kg/injection, schedule: Q01DX009 (ip), vehicle: saline 109 % of control and 120 % of control | [2] 100 % of control | [3] 113 % of control | dose: 100.0 mg/kg/injection, schedule: Q01DX009 (ip), vehicle: saline 113 % of control | dose: 115.0 mg/kg/injection, schedule: Q04DX003 (ip), vehicle: saline 95 % of control

N=C1CCCC1C(=S)SC(CC(N)=O)C(=O)O (stereo not drawn)
inactive: [4] 108 % of control | [5] 112 % of control | [6] 112 % of control

CCCCC/C=C/c1c(C)[nH]c2ccccc2c1=O
inactive: [7] 95 % of control | [8] 95 % of control | [9] 113 % of control

CN(C)CC(C(=O)c1ccc(Br)cc1)C(Br)c1ccccc1 (stereo not drawn)
inactive: dose: 0.78 mg/kg/injection, schedule: Q01DX009 (ip), vehicle: Klucel (hydroxypropylcellulose) (HPC) 100 % of control | dose: 1.56 mg/kg/injection, schedule: Q01DX009 (ip), vehicle: Klucel (hydroxypropylcellulose) (HPC) 95 % of control | dose: 3.12 mg/kg/injection, schedule: Q01DX009 (ip), vehicle: Klucel (hydroxypropylcellulose) (HPC) 108 % of control | dose: 4.6 mg/kg/injection, schedule: Q01DX009 (ip), vehicle: saline 113 % of control | dose: 7.0 mg/kg/injection, schedule: Q01DX009 (ip), vehicle: saline 118 % of control | dose: 10.0 mg/kg/injection, schedule: Q01DX009 (ip), vehicle: saline 109 % of control | dose: 14.0 mg/kg/injection, schedule: Q01DX009 (ip), vehicle: saline 108 % of control | dose: 16.25 mg/kg/injection, schedule: Q04DX003 (ip), vehicle: saline 100 % of control | dose: 22.0 mg/kg/injection, schedule: Q01DX009 (ip), vehicle: saline 108 % of control | dose: 32.5 mg/kg/injection, schedule: Q04DX003 (ip), vehicle: saline 105 % of control | dose: 65.0 mg/kg/injection, schedule: Q04DX003 (ip), vehicle: saline 110 % of control

O=C(O)C(Cc1cccc(F)c1)NC(=O)C(F)(F)F (stereo not drawn)
inactive: dose: 1.56 mg/kg/injection, schedule: Q01DX009 (ip), vehicle: saline 105 % of control | dose: 3.13 mg/kg/injection, schedule: Q01DX009 (ip), vehicle: saline 96 % of control | dose: 6.25 mg/kg/injection, schedule: Q01DX009 (ip), vehicle: saline 104 % of control

COc1ccc(CC(=O)NCCc2ccc3cc(OC)c(OC)cc3c2)cc1OC
inactive: [5] 95 % of control | [6] 95 % of control | dose: 400.0 mg/kg/injection, schedule: Q01DX009 (ip), vehicle: saline with Tween-80 91 % of control

COc1cc(Cl)ccc1C
inactive: [4] 100 % of control | [10] 104 % of control | dose: 88.0 mg/kg/injection, schedule: Q01DX009 (ip), vehicle: saline with Tween-80 108 % of control and 114 % of control | [5] 120 % of control | dose: 100.0 mg/kg/injection, schedule: Q04DX003 (ip), vehicle: saline with Tween-80 113 % of control | dose: 132.0 mg/kg/injection, schedule: Q01DX009 (ip), vehicle: saline with Tween-80 108 % of control | [6] 120 % of control and 123 % of control | dose: 200.0 mg/kg/injection, schedule: Q04DX003 (ip), vehicle: saline with Tween-80 118 % of control | dose: 300.0 mg/kg/injection, schedule: Q01DX009 (ip), vehicle: saline with Tween-80 123 % of control

Cc1[nH][nH]c(=O)c1N=O
inactive: dose: 18.75 mg/kg/injection, schedule: Q01DX009 (ip), vehicle: saline with Tween-80 92 % of control | dose: 37.5 mg/kg/injection, schedule: Q01DX009 (ip), vehicle: saline with Tween-80 99 % of control | dose: 75.0 mg/kg/injection, schedule: Q01DX009 (ip), vehicle: saline with Tween-80 99 % of control

CCOC(=O)/C(C#N)=C1\CCc2cc(OC)ccc21
inactive: dose: 100.0 mg/kg/injection, schedule: Q01DX001 (ip), vehicle: saline with Tween-80 92 % of control | dose: 200.0 mg/kg/injection, schedule: Q01DX001 (ip), vehicle: saline with Tween-80 88 % of control | dose: 400.0 mg/kg/injection, schedule: Q01DX001 (ip), vehicle: saline with Tween-80 88 % of control

CSc1nc(N)cc(NC(=O)CCl)n1
inactive: dose: 25.0 mg/kg/injection, schedule: Q01DX009 (ip), vehicle: Klucel (hydroxypropylcellulose) (HPC) 113 % of control | dose: 50.0 mg/kg/injection, schedule: Q01DX009 (ip), vehicle: Klucel (hydroxypropylcellulose) (HPC) 95 % of control | [4] 100 % of control | dose: 50.0 mg/kg/injection, schedule: Q04DX003 (ip), vehicle: Klucel (hydroxypropylcellulose) (HPC) 113 % of control | dose: 100.0 mg/kg/injection, schedule: Q01DX009 (ip), vehicle: Klucel (hydroxypropylcellulose) (HPC) 122 % of control | [5] 100 % of control | [7] 118 % of control

c1ccc(COC2CN3CCC2CC3)cc1 (stereo not drawn)
inactive: [11] 122 % of control | [10] 100 % of control

N#Cc1cnn(CCO)c1N
inactive: dose: 100.0 mg/kg/injection, schedule: Q01DX009 (ip), vehicle: water 90 % of control | dose: 100.0 mg/kg/injection, schedule: Q04DX003 (ip), vehicle: water 100 % of control | dose: 200.0 mg/kg/injection, schedule: Q01DX009 (ip), vehicle: water 113 % of control | dose: 200.0 mg/kg/injection, schedule: Q04DX003 (ip), vehicle: water 100 % of control | dose: 400.0 mg/kg/injection, schedule: Q01DX009 (ip), vehicle: water 109 % of control | dose: 400.0 mg/kg/injection, schedule: Q04DX003 (ip), vehicle: water 104 % of control

COc1cccc2c1C13CC(C)CC(C2)C1CCC(=O)N3 (stereo not drawn)
inactive: [3] 100 % of control | dose: 150.0 mg/kg/injection, schedule: Q04DX003 (ip), vehicle: saline 105 % of control | dose: 300.0 mg/kg/injection, schedule: Q04DX003 (ip), vehicle: saline 116 % of control

CCCCCCCCCCCCCCCCSc1ccc(C)cc1
inactive: dose: 5.0 mg/kg/injection, schedule: Q04DX003 (ip), vehicle: saline sonified 105 % of control | dose: 10.0 mg/kg/injection, schedule: Q04DX003 (ip), vehicle: saline sonified 105 % of control | dose: 20.0 mg/kg/injection, schedule: Q04DX003 (ip), vehicle: saline sonified 100 % of control | dose: 200.0 mg/kg/injection, schedule: Q04DX003 (ip), vehicle: other 100 % of control | dose: 400.0 mg/kg/injection, schedule: Q04DX003 (ip), vehicle: other 100 % of control

CN(C)c1ccc(/C=C/c2ccc3ccccc3n2)c(F)c1
inactive: [7] 90 % of control | [8] 95 % of control | [9] 90 % of control

Cc1ccc(S(=O)(=O)Oc2ccc([N+](=O)[O-])cc2[N+](=O)[O-])cc1
inactive: [1] 104 % of control | [2] 109 % of control | dose: 100.0 mg/kg/injection, schedule: Q04DX003 (ip), vehicle: saline 109 % of control

O=C(NP(=O)(N1CC1)N1CC1)OCc1ccccc1
inactive: dose: 100.0 mg/kg/injection, schedule: Q01DX009 (ip), vehicle: alcohol 100 % of control | dose: 100.0 mg/kg/injection, schedule: Q04DX003 (ip), vehicle: alcohol 95 % of control | dose: 200.0 mg/kg/injection, schedule: Q01DX009 (ip), vehicle: alcohol 100 % of control | dose: 200.0 mg/kg/injection, schedule: Q04DX003 (ip), vehicle: alcohol 110 % of control | dose: 400.0 mg/kg/injection, schedule: Q01DX009 (ip), vehicle: alcohol 86 % of control | dose: 400.0 mg/kg/injection, schedule: Q04DX003 (ip), vehicle: alcohol 100 % of control

CCOC(=O)C(CCSC(C)=O)SC(C)=O (stereo not drawn)
inactive: dose: 6.25 mg/kg/injection, schedule: Q01DX009 (ip), vehicle: saline with Tween-80 96 % of control | dose: 12.5 mg/kg/injection, schedule: Q01DX009 (ip), vehicle: saline with Tween-80 122 % of control | dose: 12.5 mg/kg/injection, schedule: Q04DX003 (ip), vehicle: saline with Tween-80 111 % of control | dose: 25.0 mg/kg/injection, schedule: Q01DX009 (ip), vehicle: saline with Tween-80 114 % of control | [11] 115 % of control | [4] 104 % of control | [10] 109 % of control and 111 % of control
